Assay results taken from patent publication US10702568B2, “Compositions containing silymarin and sulfoalkyl ether cyclodextrin and methods of using the same” (UNIVERSITY OF KANSAS, priority 2015, dated 2020).
Values after ≈ are worked out from the molar mass of the structure shown.

What was measured:
[1] = Log D of silymarin components (octanol/buffer, HPLC); assay type: physicochemical; details: pH 7.4
Protocol: (§1) Silymarin components including taxifolin, silydianin, silychristin, silybin A, silybin B, isosilybin A, and isosilybin B were tested for their solubility in water and also for their Log D value. The silymarin extract was obtained from Indena® (Indena Code: 9065110). The HPLC system consisted of Waters system equipped with performance PLUS inline degasser along dual λ absorbance detector set at 288 nm. The chromatographic separation of silymarin constituents was achieved on a Symmetry Shield RP18 column (150×4.6 mm, 5 μm); which was maintained at ambient room temperature conditions. The binary mobile phase system consisted of reservoir A (methanol: 10 mM ammonium acetate pH 5 [65:35 v/v]) and reservoir B (10 mM ammonium acetate, pH 5) were run as per gradient program (0-1.9 min: 25% A and 75% B; 2.0-14.9 min: 80% A and 20% B and 15-37.9 min: 80% A and 20% B and 38-40 min: 25% A and 75% B). The flow rate was 1 mL/min throughout the analytical run.
To determine the Log D of silymarin components, the silymarin extract (2 mg) was dissolved in 100% DMSO and then used for the experiment. Different buffers between pH ranges of 1.0 to 12 were prepared by using universal buffer stock containing 25 mM hydrochloric acid, 25 mM citric acid, 25 mM phosphoric acid, 30 mM boric acid and 20 mM sodium chloride. About 45 mL of universal buffer was titrated with Sodium hydroxide (5M) to obtain desired pH. A 10 μL of silymarin stock solution was spiked into Eppendorf tube containing 500 μL each of a buffer and presaturated octanol. This mixture was vortexed for 5 minutes and kept for shaking at room temperature. After 16 h, the mixture was centrifuged at 10,000 RPM for 30 minutes. After centrifugation buffer and octanol phases were separated, both phases were diluted with acetonitrile (1:1) and subject to HPLC analysis for quantitation of individual components of silymarin. The Log D values of each compound at a pH was determined by Log D (pH)=Log [Organic (peak area)/Aqueous (peak area)].

[2] = Solubility of silymarin components in water (Example 10, HPLC); assay type: physicochemical
Protocol: as §1

[3] = Silymarin solubility in water, CAPTISOL® solution and γ-cyclodextrin solution (Example 2, HPLC); assay type: physicochemical; details: for solubility: water, thermodynamic from solid, Solubility (mg/ml) of components of silymarin
Protocol: The solutions were centrifuged for 10 min at 13K rpm. An aliquot of the supernatant was diluted 1:5 for Water, 1:25 for γ-Cyclodextrin and 1:100 for both 0.20 M CAPTISOL® and 0.20M HP-B-Cyclodextrin using MeOH as the diluent. The standard reference was prepared by dissolving silymarin in 10 mg/mL of DMSO and then diluted to 0.50 mg/mL using MeOH.
The change of the saturated solubility of the various components of silymarin in each of the four types of samples can be seen in FIG. 4.
The data shown in Table 6 is plotted in FIGS. 5 and 6. The change of the solubility of the various components of silymarin in each of the three samples can be seen in FIG. 5. The total mutual saturated solubility of all flavonolignan components can be seen in FIG. 6. […] The various components of silymarin also have increased solubility in the CAPTISOL® (0.2M) sample.

[4] = Silymarin saturated solubility with CAPTISOL® (Example 1, HPLC); details: for solubility: 25 °C, thermodynamic from solid, Solubility (mg/ml) of flavonolignan components of silymarin, saturated with excess silymarin
Protocol: CAPTISOL® was dissolved in water to form four solutions with a CAPTISOL® concentration of 0.05 mol/L, 0.1 mol/L, 0.2 mol/L, and 0.3 mol/L respectively. 12 mg of silymarin powder (Sigma Aldrich) was added to 1 mL of each of the four CAPTISOL® solutions on Day 1, another 12 mg Silymarin powder was added on Day 3, and 19-22 mg Silymarin powder was added on Day 7 to ensure that silymarin reached its maximum solubility in each solution. The solutions were stirred in a water bath at 25° C. The solutions were then centrifuged prior to sampling. The supernatant was diluted in MeOH in preparation for HPLC assay.
A reference standard was prepared by mixing silymarin with methanol to provide a methanol solution with a silymarin concentration of 0.1 mg/ml.
HPLC was used to measure the relative concentrations of the different components of silymarin in each sample solution following the method described in Kuki et al., (2012) Chromatogram 75:175-180. The relative concentration of each component of silymarin was measured by comparing the normalized peak area units with that of the standard reference measured by the UV data at 288 nm and assuming equivalent extinction coefficients for all components.
The relative molar amounts of the ten flavonolignan components of silymarin were calculated by dividing the normalized peak area of each component in a sample by the total normalized peak area of the sample.
The concentration of each flavonolignan component of silymarin was calculated from the peak areas in Tables 1a and 1b and the total concentration of silymarin (0.1 mg/ml) in the reference sample, assuming constant extinction coefficients for each component.

[5] = CAPTISOL® (0.2M) in water, saturated
[6] = MeOH standard (0.5 mg/ml), reference
[7] = γ-cyclodextrin (0.15M) (Cavamax) in water, saturated
[8] = γ-cyclodextrin (0.15M), saturated
[9] = 0.05 M CAPTISOL in water, aqueous with cosolvent or surfactant or cyclodextrin, CAPTISOL® (0.05M) in water
[10] = 0.1 M CAPTISOL in water, aqueous with cosolvent or surfactant or cyclodextrin, CAPTISOL® (0.1M) in water
[11] = 0.2 M CAPTISOL in water, aqueous with cosolvent or surfactant or cyclodextrin, CAPTISOL® (0.2M) in water
[12] = 0.3 M CAPTISOL in water, aqueous with cosolvent or surfactant or cyclodextrin, CAPTISOL® (0.3M) in water
[13] = CAPTISOL® (0.05M), saturated solubility
[14] = CAPTISOL® (0.1M), saturated solubility
[15] = CAPTISOL® (0.2M), saturated solubility
[16] = CAPTISOL® (0.3M), saturated solubility
[17] = MeOH standard (0.1 mg/ml), reference, share of total normalized peak area

| Compound | Solubility (mg/ml) of components of silymarin [3, 5] | Percentages of components of silymarin flavonolignan in the sample ([3]; CAPTISOL® (0.2M), saturated) | Percentages of components of silymarin flavonolignan in the sample ([3]; H2O, saturated) | Solubility (mg/ml) of components of silymarin ([3]; H2O, saturated) | Percentages of components of silymarin flavonolignan in the sample [3, 6] | Solubility (mg/ml) of components of silymarin [3, 7] | Percentages of components of silymarin flavonolignan in the sample [3, 8] | solubility [3] | solubility [4, 9] | solubility [4, 10] | solubility [4, 11] | solubility [4, 12] | Percentages of flavonolignan components of silymarin in the sample [4, 13] | Percentages of flavonolignan components of silymarin in the sample [4, 14] | Percentages of flavonolignan components of silymarin in the sample [4, 15] | Percentages of flavonolignan components of silymarin in the sample [4, 16] | Percentages of flavonolignan components of silymarin in the sample [4, 17] | solubility ([4]; water, H2O) | other results |
| --- | --- | --- | --- | --- | --- | --- | --- | --- | --- | --- | --- | --- | --- | --- | --- | --- | --- | --- | --- |
| COc1cc([C@@H]2Oc3c(O)cc([C@H]4Oc5cc(O)cc(O)c5C(=O)[C@@H]4O)cc3[C@H]2CO)ccc1O [Silychristin] | – | – | – | – | – | – | – | – | – | – | – | – | – | – | – | – | – | – | Log D (7.4 pH) [1]: 0.53; Solubility in water [2]: 170 µg/mL (≈ 352 µM) |
| COc1cc([C@H]2Oc3cc([C@H]4Oc5cc(O)cc(O)c5C(=O)[C@H]4O)ccc3O[C@@H]2CO)ccc1O (relative stereo) [2,3-cis-silybin A] | 2.21 mg/mL | 3.47% | 1.88% | 0.01 mg/mL | 1.54% | 0.12 mg/mL | 1.56% | – | – | – | – | – | – | – | – | – | – | – | Solubility (mg/ml) of components of silymarin ([3]; MeOH standard (0.5 mg/ml silymarin, dissolved reference, not saturated)): 0.01 mg/mL |
| COc1cc([C@@H]2Oc3cc([C@H]4Oc5cc(O)cc(O)c5C(=O)[C@H]4O)ccc3O[C@H]2CO)ccc1O (relative stereo) [2,3-cis-silybin B] | 1.20 mg/mL | 1.89% | 0.75% | 0.01 mg/mL | 0.99% | 0.06 mg/mL | 0.74% | – | – | – | – | – | – | – | – | – | – | – | – |

Now from value to compound, other results behind:

| Solubility (mg/ml) of components of silymarin [3, 5] | Percentages of components of silymarin flavonolignan in the sample ([3]; CAPTISOL® (0.2M), saturated) | Percentages of components of silymarin flavonolignan in the sample ([3]; H2O, saturated) | Solubility (mg/ml) of components of silymarin ([3]; H2O, saturated) | Percentages of components of silymarin flavonolignan in the sample [3, 6] | Solubility (mg/ml) of components of silymarin [3, 7] | Percentages of components of silymarin flavonolignan in the sample [3, 8] | solubility [3] | solubility [4, 9] | solubility [4, 10] | solubility [4, 11] | solubility [4, 12] | Percentages of flavonolignan components of silymarin in the sample [4, 13] | Percentages of flavonolignan components of silymarin in the sample [4, 14] | Percentages of flavonolignan components of silymarin in the sample [4, 15] | Percentages of flavonolignan components of silymarin in the sample [4, 16] | Percentages of flavonolignan components of silymarin in the sample [4, 17] | solubility ([4]; water, H2O) | Compound | other results |
| --- | --- | --- | --- | --- | --- | --- | --- | --- | --- | --- | --- | --- | --- | --- | --- | --- | --- | --- | --- |
| – | – | – | – | – | – | – | 60 µg/mL (≈ 124 µM) | 930 µg/mL (≈ 1930 µM) | 1150 µg/mL (≈ 2380 µM) | 2320 µg/mL (≈ 4810 µM) | 2500 µg/mL (≈ 5180 µM) | 3.98% | 2.99% | 3.51% | 3.48% | 1.50% | 40 µg/mL (≈ 82.9 µM) | COc1cc([C@H]2Oc3c(O)cc([C@H]4Oc5cc(O)cc(O)c5C(=O)[C@@H]4O)cc3[C@@H]2CO)ccc1O [Silychristin B] | Percentages of flavonolignan components of silymarin in the sample ([4]; H2O, saturated solubility, share of total normalized peak area): 5.21% |
| – | – | – | – | – | – | – | 440 µg/mL (≈ 912 µM) | 9570 µg/mL (≈ 19800 µM) | 15300 µg/mL (≈ 31700 µM) | 25500 µg/mL (≈ 52800 µM) | 26900 µg/mL (≈ 55800 µM) | 41.07% | 39.70% | 38.52% | 37.52% | 22.28% | 460 µg/mL (≈ 953 µM) | COc1cc([C@@H]2Oc3c(O)cc([C@H]4Oc5cc(O)cc(O)c5C(=O)[C@@H]4O)cc3[C@H]2CO)ccc1O [Silychristin A] | – |
